This passage reports T/C results from PubChem BioAssay AID248 (DTP/NCI, 2004).

Where “and” joins values, the source holds several entries; their conditions need not be identical. Equal values may be shown once. Toxic doses and inconclusive results are not listed.

The test system of the test is L1210 leukemia ip in BDF1 mice, survival T/C. In words: NCI In Vivo Anticancer Drug Screen. Data for tumor model L1210 Leukemia (intraperitoneal) in B6D2F1 (BDF1) mice. The settings on record: endpoint: mean survival time, higher = longer survival. A digest of the protocol:
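Read-out is survival time, reported as the treated-group measurement over the vehicle-control measurement.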

Where [1] appears, read: dose: 100.0 mg/kg/injection, schedule: Q04DX003 (ip), vehicle: saline.
Setting [2] is: dose: 200.0 mg/kg/injection, schedule: Q04DX003 (ip), vehicle: saline.
The mark [3] stands for this setting: dose: 50.0 mg/kg/injection, schedule: Q01DX009 (ip), vehicle: Klucel (hydroxypropylcellulose) (HPC).
[4] abbreviates: dose: 100.0 mg/kg/injection, schedule: Q01DX009 (ip), vehicle: Klucel (hydroxypropylcellulose) (HPC).
Where [5] appears, read: dose: 200.0 mg/kg/injection, schedule: Q01DX009 (ip), vehicle: Klucel (hydroxypropylcellulose) (HPC).
[6] abbreviates: dose: 100.0 mg/kg/injection, schedule: Q04DX003 (ip), vehicle: Klucel (hydroxypropylcellulose) (HPC).
Setting [7] is: dose: 200.0 mg/kg/injection, schedule: Q04DX003 (ip), vehicle: Klucel (hydroxypropylcellulose) (HPC).

On to `S=P1(c2ccccc2)Nc2ccc(Cl)cc2N1` (stereo not drawn), for which the T/C is 104 % of control (dose: 75.0 mg/kg/injection, schedule: Q04DX002 (ip), vehicle: gum acacia); 104 % of control (dose: 150.0 mg/kg/injection, schedule: Q04DX002 (ip), vehicle: gum acacia); 101 % of control (dose: 300.0 mg/kg/injection, schedule: Q04DX002 (ip), vehicle: gum acacia).
With `CCOC(=O)C(CC(C)C)NC(=O)c1ccc(C)c2c1Nc1c(c(C)c3oc(=O)c(C)nc3c1C(=O)NC(CC(C)C)C(=O)OCC)O2` (stereo not drawn), the T/C reads like this: (dose: 75.0 mg/kg/injection, schedule: Q01DX001 (ip), vehicle: other) 91 % of control; (dose: 150.0 mg/kg/injection, schedule: Q01DX001 (ip), vehicle: other) 86 % of control; (dose: 300.0 mg/kg/injection, schedule: Q01DX001 (ip), vehicle: other) 88 % of control.
Consider `N#CCc1ccc2[nH]c3c(c2c1)CCCC3`, for which the T/C by setting is: (dose: 100.0 mg/kg/injection, schedule: Q04DX002 (ip), vehicle: Klucel (hydroxypropylcellulose) (HPC)) 106 % of control; (dose: 200.0 mg/kg/injection, schedule: Q04DX002 (ip), vehicle: Klucel (hydroxypropylcellulose) (HPC)) 92 % of control; (dose: 400.0 mg/kg/injection, schedule: Q04DX002 (ip), vehicle: Klucel (hydroxypropylcellulose) (HPC)) 92 % of control.
For the compound `CC1CCCC(C[N+](C)(C)C)C1=O` (stereo not drawn), the T/C reads like this: under setting [1], 93 % of control; under setting [2], 101 % of control.
Regarding `c1cc[c]([Sn]([c]2ccccc2)([c]2ccccc2)[CH]2CCCCC2)cc1`, the T/C is 89 % of control under setting [1]; 93 % of control under setting [2]; 89 % of control (dose: 400.0 mg/kg/injection, schedule: Q04DX003 (ip), vehicle: saline).
As to `CCOc1ccc(N=NS(=O)(=O)O)cc1`, the T/C (dose: 1.25 mg/kg/injection, schedule: Q01DX009 (ip), vehicle: saline with Tween-80) is 94 % of control; the T/C (dose: 2.5 mg/kg/injection, schedule: Q01DX009 (ip), vehicle: saline with Tween-80) was 91 % of control; the T/C (dose: 5.0 mg/kg/injection, schedule: Q01DX009 (ip), vehicle: saline with Tween-80) was 94 % of control.
Regarding `NC1=NCC(CSS(=O)(=O)O)S1` (stereo not drawn), the T/C reads like this: (dose: 5.0 mg/kg/injection, schedule: Q01DX009 (ip), vehicle: saline) 95 % of control; (dose: 10.0 mg/kg/injection, schedule: Q01DX001 (ip), vehicle: saline) 101 % of control; (dose: 10.0 mg/kg/injection, schedule: Q01DX009 (ip), vehicle: saline) 89 % of control; (dose: 10.0 mg/kg/injection, schedule: Q04DX003 (ip), vehicle: saline) 96 % of control; (dose: 20.0 mg/kg/injection, schedule: Q01DX001 (ip), vehicle: saline) 93 % of control; (dose: 20.0 mg/kg/injection, schedule: Q01DX009 (ip), vehicle: saline) 106 % of control. Also, the T/C is 105 % of control (dose: 20.0 mg/kg/injection, schedule: Q04DX003 (ip), vehicle: saline); 90 % of control (dose: 29.0 mg/kg/injection, schedule: Q01DX009 (ip), vehicle: saline); 95 % of control (dose: 40.0 mg/kg/injection, schedule: Q01DX001 (ip), vehicle: saline); 97 % of control (dose: 40.0 mg/kg/injection, schedule: Q04DX003 (ip), vehicle: saline).
In the case of `CC1(C)OC2OC(C(O)CN3CC3)C(O)C2O1` (stereo not drawn), the T/C runs as follows: (dose: 24.6 mg/kg/injection, schedule: Q01DX Z (ip), vehicle: methylcellulose (MC)) 104 % of control; (dose: 37.0 mg/kg/injection, schedule: Q01DX Z (ip), vehicle: methylcellulose (MC)) 107 % of control; (dose: 56.0 mg/kg/injection, schedule: Q01DX Z (ip), vehicle: methylcellulose (MC)) 99 % of control; (dose: 84.0 mg/kg/injection, schedule: Q01DX Z (ip), vehicle: methylcellulose (MC)) 107 % of control.
On to `[CH3][Sb]1([Br])[CH2]CC[CH2]1`, for which the T/C is 93 % of control under setting [1] and 101 % of control under setting [2].
Consider `CCOC(=O)c1cnc2c(cnn2CC)c1NCC(C)C`, for which the T/C is, setting by setting: under setting [3], 100 % of control; under setting [4], 100 % of control; under setting [5], 103 % of control.
For `C=C(Cl)COC1CCS(=O)(=O)C1` (stereo not drawn), the T/C by setting is: (dose: 6.25 mg/kg/injection, schedule: Q01DX009 (ip), vehicle: saline with Tween-80) 94 % of control and 101 % of control; (dose: 12.5 mg/kg/injection, schedule: Q01DX009 (ip), vehicle: saline with Tween-80) 95 % of control and 97 % of control; (dose: 25.0 mg/kg/injection, schedule: Q01DX009 (ip), vehicle: saline with Tween-80) 100 % of control and 122 % of control; (dose: 50.0 mg/kg/injection, schedule: Q01DX009 (ip), vehicle: saline with Tween-80) 97 % of control.
Take `Nc1nc(=S)c2nnn(C3OC(CO)C(O)C3O)c2[nH]1` (stereo not drawn): the T/C reads like this: (dose: 100.0 mg/kg/injection, schedule: Q01DX001 (ip), vehicle: saline with Tween-80) 104 % of control; (dose: 200.0 mg/kg/injection, schedule: Q01DX001 (ip), vehicle: saline with Tween-80) 104 % of control; (dose: 400.0 mg/kg/injection, schedule: Q01DX001 (ip), vehicle: saline with Tween-80) 90 % of control.
Consider `Cc1ncc(C(=O)O)s1`, for which the T/C was 90 % of control under setting [6]; 95 % of control under setting [7]; 98 % of control (dose: 400.0 mg/kg/injection, schedule: Q04DX003 (ip), vehicle: Klucel (hydroxypropylcellulose) (HPC)).
As for `CCOCCOCCOCCCNCCCN1CC1`, the T/C runs as follows: (dose: 88.0 mg/kg/injection, schedule: Q01DX009 (ip), vehicle: saline) 117 % of control; (dose: 200.0 mg/kg/injection, schedule: Q01DX009 (ip), vehicle: saline) 96 % of control; (dose: 300.0 mg/kg/injection, schedule: Q01DX001 (ip), vehicle: saline) 116 % of control.
Take `NNS(=O)(=O)c1ccc(N=Nc2ccccc2)cc1`: the T/C is, setting by setting: (dose: 100.0 mg/kg/injection, schedule: Q04DX003 (ip), vehicle: saline with Tween-80) 90 % of control; (dose: 200.0 mg/kg/injection, schedule: Q04DX003 (ip), vehicle: saline with Tween-80) 93 % of control; (dose: 400.0 mg/kg/injection, schedule: Q04DX003 (ip), vehicle: saline with Tween-80) 97 % of control.
With `C=CCN(CC=C)P(=O)(N1CC1C)N1CC1C` (stereo not drawn), the T/C is 124 % of control (dose: 1.0 mg/kg/injection, schedule: Q01DX009 (ip), vehicle: saline) and 172 % of control (dose: 3.0 mg/kg/injection, schedule: Q01DX009 (ip), vehicle: saline).
`COc1ccc(-c2ccc(OC)c(OC)c2OC)c(N)c1`: the T/C is 93 % of control and 121 % of control (dose: 65.0 mg/kg/injection, schedule: Q01DX Z (ip), vehicle: carboxymethylcellulose (CMC)); 94 % of control and 100 % of control (dose: 125.0 mg/kg/injection, schedule: Q01DX Z (ip), vehicle: carboxymethylcellulose (CMC)); 93 % of control and 86 % of control (dose: 250.0 mg/kg/injection, schedule: Q01DX Z (ip), vehicle: carboxymethylcellulose (CMC)); 112 % of control (dose: 500.0 mg/kg/injection, schedule: Q01DX Z (ip), vehicle: carboxymethylcellulose (CMC)).
Regarding `CCC(C)Nc1ccccc1` (stereo not drawn), the T/C reads like this: under setting [3], 102 % of control and 104 % of control; (dose: 50.0 mg/kg/injection, schedule: Q04DX003 (ip), vehicle: Klucel (hydroxypropylcellulose) (HPC)) 101 % of control; under setting [4], 102 % of control and 103 % of control; under setting [6], 101 % of control; under setting [5], 94 % of control and 87 % of control; under setting [7], 97 % of control.
In the case of `CC(=N/N(C)c1ccccc1)/C(C)=N/N(C)c1ccccc1`, the T/C is, setting by setting: (dose: 5.0 mg/kg/injection, schedule: Q01DX001 (ip), vehicle: other) 96 % of control; (dose: 10.0 mg/kg/injection, schedule: Q01DX001 (ip), vehicle: other) 102 % of control; (dose: 20.0 mg/kg/injection, schedule: Q01DX001 (ip), vehicle: other) 100 % of control; (dose: 40.0 mg/kg/injection, schedule: Q01DX001 (ip), vehicle: other) 100 % of control; (dose: 80.0 mg/kg/injection, schedule: Q01DX001 (ip), vehicle: other) 93 % of control.
For the compound `COC(=O)CCCc1ccc(N(CCO)CCF)cc1`, the T/C (dose: 25.0 mg/kg/injection, schedule: Q01DX001 (ip), vehicle: carboxymethylcellulose (CMC)) was 103 % of control; the T/C (dose: 50.0 mg/kg/injection, schedule: Q01DX001 (ip), vehicle: carboxymethylcellulose (CMC)) was 114 % of control; the T/C (dose: 100.0 mg/kg/injection, schedule: Q01DX001 (ip), vehicle: carboxymethylcellulose (CMC)) is 101 % of control; the T/C (dose: 200.0 mg/kg/injection, schedule: Q01DX001 (ip), vehicle: carboxymethylcellulose (CMC)) was 106 % of control.
